Laboratory results reported in the NIST ThermoML archive (doi:10.1016/j.jct.2004.11.016).
Numbers after ± are expanded uncertainties.

Assays:
[1] = Liquid; for mass density: 101.3 kPa; for viscosity: 101 kPa
[2] = xn = mol fraction of the nth substance listed; settings: Liquid, x2 = 0; for viscosity: 101 kPa; for mass density: 101.3 kPa

Compound | viscosity ([1]; 313.15 K) [mPa·s] | viscosity ([1]; 323.15 K) [mPa·s] | mass density ([1]; 323.15 K) [kg/m3] | mass density ([1]; 328.15 K) [kg/m3] | viscosity ([1]; 333.15 K) [mPa·s] | mass density ([1]; 333.15 K) [kg/m3] | mass density ([1]; 338.15 K) [kg/m3] | viscosity ([1]; 343.15 K) [mPa·s] | mass density ([1]; 343.15 K) [kg/m3] | mass density ([1]; 348.15 K) [kg/m3] | viscosity ([1]; 353.15 K) [mPa·s] | mass density ([1]; 353.15 K) [kg/m3] | mass density ([1]; 358.15 K) [kg/m3] | mass density ([1]; 363.15 K) [kg/m3] | also measured
CN(C)CCO [2-(N,N-dimethylamino)ethanol] | 2.238 ± 0.033 | 1.756 ± 0.026 | 861.902 ± 1.4 | 857.46 ± 1.4 | 1.413 ± 0.021 | 852.965 ± 1.4 | 848.423 ± 1.5 | 1.156 ± 0.017 | 843.844 ± 1.5 | 839.205 ± 1.5 | 0.963 ± 0.015 | 834.521 ± 1.5 | 829.779 ± 1.6 | 824.969 ± 1.6 | mass density ([1]; 293.15 K): 887.816 ± 1.2 kg/m3; mass density ([1]; 298.15 K): 883.578 ± 1.2 kg/m3; mass density ([1]; 303.15 K): 879.315 ± 1.3 kg/m3; mass density ([1]; 308.15 K): 875.017 ± 1.3 kg/m3; mass density ([1]; 313.15 K): 870.686 ± 1.3 kg/m3; mass density ([1]; 318.15 K): 866.316 ± 1.3 kg/m3
O [water] + CN(C)CCO | – | – | – | – | – | – | – | – | – | – | – | – | – | – | viscosity ([2]; 313.15 K): 0.651 ± 0.01 mPa·s; viscosity ([2]; 323.15 K): 0.544 ± 0.009 mPa·s; mass density ([2]; 323.15 K): 988.03 ± 0.57 kg/m3; mass density ([2]; 328.15 K): 985.688 ± 0.59 kg/m3; viscosity ([2]; 333.15 K): 0.463 ± 0.008 mPa·s; mass density ([2]; 333.15 K): 983.191 ± 0.6 kg/m3; mass density ([2]; 338.15 K): 980.546 ± 0.62 kg/m3; viscosity ([2]; 343.15 K): 0.396 ± 0.007 mPa·s; mass density ([2]; 343.15 K): 977.759 ± 0.64 kg/m3; mass density ([2]; 348.15 K): 974.838 ± 0.66 kg/m3; viscosity ([2]; 353.15 K): 0.348 ± 0.006 mPa·s; mass density ([2]; 353.15 K): 971.785 ± 0.68 kg/m3; mass density ([2]; 358.15 K): 968.606 ± 0.7 kg/m3; mass density ([2]; 363.15 K): 965.305 ± 0.72 kg/m3
O [water] | 0.651 ± 0.01 | 0.544 ± 0.009 | 988.03 ± 0.57 | 985.688 ± 0.59 | 0.463 ± 0.008 | 983.191 ± 0.6 | 980.546 ± 0.62 | 0.396 ± 0.007 | 977.759 ± 0.64 | 974.838 ± 0.66 | 0.348 ± 0.006 | 971.785 ± 0.68 | 968.606 ± 0.7 | 965.305 ± 0.72 | –
